Experimental data reported in patent US10653822B2, “Drug delivery devices and methods of making and using same” (The Administrators of the Tulane Educational Fund, priority 2012, dated 2020).
Read-outs that look alike come from different tables or passages of the source.

Experiments:
[1] = HPLC detection of FF to FA conversion in human blood; assay type: in vitro ADME; settings: 50 μM FF in human blood, 4 hours, 37° C.
Source text: (§1) HIGH PERFORMANCE LIQUID CHROMATOGRAPHY. […] DAD wavelength was set to 285 nm.

LN-229 cells [2] = test system: LN-229 cells
Source text: as §1
HPLC parameters are given in the materials and methods section and in the legend to FIG. 39. Data represent average values from 2 experiments in triplicate (n=6)±SD (SD values for some points are too small to be visible). […] To test this alternative interpretation, we collected conditioned medium from the LN-229 cells cultured for 72 hrs.

[3] = 120 h
LN-229 cells [4] = settings: human, 24 h, 25 µM
Experimental: (§2) Blood plasma, cell culture media, cellular and tissue lysates, were deproteinized by adding 150 μl of acetonitrile to 150 μl of sample, mixed well and centrifuged (15 000 g, 5 min). […] For the subcellular fractionation, subconfluent monolayer cultures were washed in phosphate buffered saline (PBS) twice, then cells were scraped and lysed in 2% sodium dodecyl sulphate (SDS) in PBS. The lysates were sonicated on ice and centrifuged (15 000 g, 5 min). Finally, 150 μl of the supernatant was mixed with the equal volume of acetonitrile, filtered through 0.22 μm centrifuge filter (Sigma) and analyzed by High Performance Liquid Chromatography (HPLC).
(§3) All data were obtained from the Agilent Technologies 1100 apparatus equipped with a line degasser, binary pump (high pressure mixer), autosampler, column thermostat and Diode Array Detector (DAD). The YMCBase, 3 μm 4.6×150 mm analytical column was used and solvent A—50 mM acetic acid in water or solvent B—acetonitrile, with isocratic flow 60%. Flow rate was set to 1 ml/min, column temperature was 20° C., and 5 μl of 0.22 μm filtered sample was injected. DAD wavelength was set to 285 nm.
(§4) Data represent average values from three separate measurements with standard deviation.

[5] = Tissue distribution of FF and FA after oral fenofibrate in mice (HPLC); assay type: in vivo; settings: for concentration at 4 weeks: Balb c/nude, mouse, oral, 50 mg/kg/day
Experimental: ANIMAL STUDIES. […] according to the standard ethically accepted procedure, and the following organs/body fluids were collected: blood, urine, liver, kidneys, spleen, heart, lungs, intact brain and intracranial tumor tissue.
as §1
For body fluids concentrations are calculated per ml of the body fluid, and in solid tissues per mg of the tissue.

LN-229 cells [6] = assay: Subcellular distribution of FF and FA in LN-229 membrane and cytosolic fractions (HPLC); settings: per 10^6 LN-229 cells, 25 μM fenofibrate, 24 hrs
Experimental: as §2, §3, §4

[7] = test system: blood-brain barrier (BBB) in vitro model; settings: coculture with inserts; cited from earlier work
[8] = cited from earlier work
[9] = In vitro release of model drugs (salicylic acid, ibuprofen) from breath figure and non-porous PLGA and PEG/PLGA films in PBS; assay type: physicochemical; settings: PBS 37° C.
Experimental: Ibuprofen and Salicylic acid were used as model drugs to characterize the release profiles of breath figure polymer films. The equivalent non-porous smooth films were used as controls. In vitro release studies were carried out by incubating 1.5 cm side square drug incorporated films in 15 ml of PBS medium at 37° C. and stirred gently using a magnetic stirrer. At specific time intervals, 0.650 ml aliquots of the solution was withdrawn and centrifuged to remove any possible debris from the degrading polymer. Then, the aliquot was returned to the vial after measuring the absorbance to quantify drug release. The pH of the medium was monitored during the course of the experiment to verify that the solution is buffered adequately during polymer degradation. Ibuprofen and salicylic acid release were quantified through the absorbance at 221 and 296 nm, respectively. Standard calibration plots of ibuprofen and salicylic acid absorbance were constructed to correlate absorbance with drug release levels. All experiments were conducted in triplicate.
The release profile of breath figure PLGA and PEG/PLGA films was carried out in PBS medium (pH 7.4, 0.1M), incubated at 37° C. A non-porous film with the equivalent amount of drug dispersed was used as control. […] FIG. 14 illustrates the cumulative release of salicylic acid from the PLGA film and PEG/PLGA film, respectively, for a period of 2 days. […]

[10] = In vitro release of 5-FU from double-layered breath figure PLGA films in PBS; assay type: physicochemical
Experimental: IN VITRO RELEASE CHARACTERISTICS OF DOUBLE-LAYERED 5-FU-PLGA FILM. […] At specific time intervals, a 1 ml aliquot of the solution was withdrawn and 1 ml of fresh PBS was added to the vial to maintain constant volume. The pH of the medium was monitored during the course of the experiment to verify that the solution was buffered adequately during polymer degradation. Each aliquot was centrifuged to remove any possible debris from the degraded polymer components that could interfere with the absorbance readings and drug release was quantified through the absorbance measured at 266 nm. A standard calibration plot of 5-FU absorbance was constructed to correlate absorbance with drug release levels. All experiments were conducted with triplicate polymer samples.

COS-1 cells [11] = assay: Cytotoxicity of drug released into culture medium over timed intervals
LN-229 cells [12] = assay: Clonogenic assay; assay type: cell-based, human; settings: 12 days; drugs at 50 μM or wafer with 1 mg fenofibrate
Experimental: CHLONOGENIC ASSAY. […] Control cells were treated with the vehicle (DMSO). […] All the conditions were tested in duplicate and each experiment was performed at least three times.

COS-1 cells [13] = assay: COS-1 proliferation with MMC-loaded PLGA films, 5-day culture, toluidine blue; assay type: cell-based; settings: MMC incorporated into the bulk PLGA film
Experimental: CELL CULTURE AND RELEASE STUDY. For the dose response study, control samples (no drug) and MMC-containing samples were loaded into sterile 12-well plates. […] COS-1 cells (10^4 cells) were added to each well and the cells were incubated at 37° C. in a humidified 5% CO2-95% air atmosphere. The culture medium was replenished on day 3 and day 5 after the cells were plated. After 5 days of culture, the cell accumulation in each culture dish was assessed. The culture medium was removed and the cell layer was gently washed 3 times with 5 mL of phosphate-buffered saline (PBS). […] The amount of dye in each well was measured by the absorbance at 650 nm, which is equivalent to the number of cells, using UV-Visible spectrophotometer (Model UB-1601, Shimadzu scientific instruments Inc, Houston, Tex.).
For the preliminary dose-response study, COS-1 cells (10^4 cells in 1 mL) were added to each well of a 12-well plate. […] After 5 days of culture, the cell accumulation in each culture dish was assessed by a modification of a previously described procedure (Leavesley D I, Ferguson G D, Wayner E A, et al. Requirement of the integrin beta 3 subunit for carcinoma cell spreading or migration on vitronectin and fibrinogen. J Cell Biol. 1992; 117:1101-1107.) Briefly, culture medium was removed and the cell layer was gently washed 2 times with 2 mL of phosphate-buffered saline (PBS). […]

[14] = Stability of MMC in PBS and after spin-casting in PLGA-dichloromethane; assay type: physicochemical
[15] = In vitro release of MMC from surface-loaded PLGA films into PBS; assay type: physicochemical; settings: films loaded with 1 and 5 μg MMC, absorbance at 364 nm
Experimental: Aliquots (0.65 mL) of the PBS were removed at specific time intervals after immersion of the polymer samples, and absorbance was measured at 364 nm using a UV spectrophotometer (Shimadzu UV-1700 series). After measurement, the aliquots were returned to the vials to maintain constant volume and sink conditions.

[16] = blood, read-out: concentration in Blood
[17] = urine, read-out: concentration in Urine
[18] = mice, micronized fenofibrate 50 mg/kg/day oral, n = 4
[19] = mice, micronized fenofibrate 50 mg/kg/day oral, n = 6

## CC(C)OC(=O)C(C)(C)Oc1ccc(C(=O)c2ccc(Cl)cc2)cc1 [FF, fenofibrate]
[1]
  decrease of FF peak in human blood: about 5 fold
LN-229 cells [2]; human, 50 µM
  time of maximal intracellular concentration: 24 h
[3]
  stability in culture medium: at least 120 h
LN-229 cells [4]
  amount in cytosolic fraction: 2.40 nmol
[5]; [16]
  concentration at 4 weeks: 0 µM
[5]; [17]
  concentration at 4 weeks: 0 µM

## CC(C)(Oc1ccc(C(=O)c2ccc(Cl)cc2)cc1)C(=O)O [FA, fenofibric acid]
LN-229 cells [6]
  amount in cytosolic fraction: 0.57 nmol
LN-229 cells [2]
  FA detected after FF incubation in filtered conditioned medium: did not detect any traces
[7]
  BBB permeability coefficient: 11.3 ×10⁻⁶ cm/s
[5]; [16]
  concentration at 4 weeks: 3.33 µM
[5]; [17]
  concentration at 4 weeks: 5.34 µM
[5]; mice with intracranial LN-229, micronized fenofibrate 50 mg/kg/day oral, n = 6
  concentration in Intracranial tumor: 0 nmol/mg
[5]; [18]
  concentration in Heart: 1.31 ± 1.4 nmol/mg
  concentration in Spleen: 1.33 ± 1.1 nmol/mg
[5]; mice, micronized fenofibrate 50 mg/kg/day oral, n = 5
  concentration in Brain: 0.06 ± 0.1 nmol/mg
[5]; [19]
  concentration in Kidneys: 1.5 ± 0.8 nmol/mg
  concentration in Liver: 11.35 ± 3.9 nmol/mg
  concentration in Lungs: 0.36 ± 04 nmol/mg

## O=C(O)c1ccccc1O [salicylic acid]
[8]
  water solubility: > 2000 µg/mL

## CC(C)Cc1ccc(C(C)C(=O)O)cc1 (stereo not shown) [ibuprofen]
[9]
  duration of release from films: at least 14 days
[8]
  water solubility: < 500 µg/mL

## O=c1[nH]cc(F)c(=O)[nH]1 [5-FU, 5-fluorouracil]
[10]
  continuous release of drug after the lag phase: 21 days
  duration of sharp increase in drug release after the delay: 10 days
  lag period after the sharp release phase: 2 to 3 days
[10]; sealed top layer
  delay of the initial release by sealing: 3 to 5 days
[10]; sealed top layer, 0.1, 0.4, 2 mg 5-FU
  burst effect in the first 24 hours of incubation: no burst effect
[8]
  water solubility (in words): highly water soluble
COS-1 cells [11]; double-layered film with 0.1 mg 5-FU, samples from >15 days of incubation
  killing efficiency (percent of cells killed vs PLGA film without drug): about 75%
COS-1 cells [11]; double-layered film with 0.4 mg 5-FU
  total incubation with culture medium until maximum cytotoxicity: 4 to 5 days

## Cc1ccc(C)c(OCCCC(C)(C)C(=O)O)c1 [Gemfibrozil, gemfibrozil]
LN-229 cells [12]
  inhibition of clonal growth of LN-229 cells: not able to reproduce them

## CO[C@@]12[C@H](COC(N)=O)C3=C(C(=O)C(C)=C(N)C3=O)N1C[C@@H]1N[C@@H]12 [MMC, mitomycin C]
COS-1 cells [13]
  toxic effect of degraded products on COS-1 cells: no toxic effect
[14]; 50 day incubation, 23 degrees C.
  loss of activity in PBS at 23 degrees C.: approximately 15%
[14]; 50 day incubation, 37 degrees C.
  loss of activity in PBS at 37 degrees C.: ~50%
[14]; 50 days, 4 degrees C.
  activity in PBS at 4 degrees C.: retained its activity
[14]; spin-cast PLGA film
  loss of activity after dissolving in PLGA-dichloromethane and spin-casting: 100%
[15]
  active drug released from the film: 20-40%

## Cc1cccc(Nc2cc(Cl)nc(SCC(=O)O)n2)c1C [Wy-14,643]
LN-229 cells [12]
  inhibition of clonal growth of LN-229 cells: not able to reproduce them
